Consider nine compounds from patent US10941157B2, “Pesticidal compositions and uses thereof” (Gilead Apollo, LLC, priority 2015, dated 2021).

Values after ≈ are worked out from the molar mass of the structure shown. Where only a bound is given, the exact number is not on record here.

Type in all cases: cell-based
The subject of one assay is Botrtyis cinerea (Bc). The experiment in a line: In vitro pathogen growth inhibition assay, Bc. The following applies: 48 h, ≥90% inhibition; 48 hours vs 2% DMSO control; read-out: Compound Concentration (ppm) sufficient for ≥90% inhibition of growth, Bc. As to the method:
(§1) A growth inhibition assay was conducted to determine the ability of compounds to control the growth of fungal pathogens, such as Botrtyis cinerea (Bc), Collectotrichum graminicola (Cg), Diplodia maydis (Dm), Fusarium moniliforme (Fm), Fusarium virguliforme (Fv), Phytophthora capsici (Pc), Rhizoctonia solani (Rs), and Septoria tritici (St). The compounds listed in Table 1 were each dissolved in DMSO at 2.5 mg/ml to produce compound stock solutions (“stocks”). […] Negative controls on each plate included 2% DMSO, water, and a blank (media+2% DMSO). Fungal spores were isolated from previously sub-cultured plates of Botrtyis cinerea (Bc), Collectotrichum graminicola (Cg), Diplodia maydis (Dm), Fusarium moniliforme (Fm), Fusarium virguliforme (Fv), Phytophthora capsici (Pc), and Septoria tritici (St). The isolated spores were diluted to individual concentrations with a 17% V8 liquid media. For Rhizoctonia solani (Rs), 1.5 mm mycelial plugs were used in place of spores and ¼ Potato Dextrose Broth (PDB) was used for dilution. The spore concentrations and plug sizes were based on growth curves generated at 48 hours for each pathogen. In a second 96-well plate, the spores or mycelial plugs, media, diluted compound solutions, and controls were combined. Once the compound was added, a true final concentration of compound in each well was measured by an OD600 reading, which adjusted for any compound precipitation that might have occurred in the well. Plate readings were repeated at both 24 and 48 hours. The blank negative control was used as a background subtraction. Additional visual ratings were performed at both 24 and 48 hours for checking on precipitation and confirming efficacy. […] Both tables list the concentration of each compound that was sufficient to ≥90% inhibition of growth for each of the fungal pathogens listed above. In addition, some of compounds were tested in a yeast growth inhibition assay for Saccharomyces cerevisiae (Sc). Table 2 lists the concentration of the tested compound that was sufficient to ≥75% inhibition of Saccharomyces cerevisiae (Sc).

For a further assay, the system named is Diplodia maydis (Dm). The assay is described as follows: In vitro pathogen growth inhibition assay, Dm. The following applies: Stenocarpella maydis, 48 h, ≥90% inhibition; 48 hours vs 2% DMSO control; read-out: Compound Concentration (ppm) sufficient for ≥90% inhibition of growth, Dm. The protocol: as §1
The subject of the next assay is Rhizoctonia solani (Rs). The assay is described as follows: In vitro pathogen growth inhibition assay, Rs (mycelial plugs). The following applies: mycelial plugs; for IC90: Rhizoctonia solani, 48 h, ≥90% inhibition, 48 hours vs 2% DMSO control, read-out: Compound Concentration (ppm) sufficient for ≥90% inhibition of growth, Rs; for Compound Concentration (ppm) sufficient for ≥90% inhibition of Rs: ≥90% growth inhibition, 48 hours, vs 2% DMSO control. The protocol:
as §1

In assay [1] the test system is Fusarium virguliforme (Fv). The assay is described as follows: In vitro pathogen growth inhibition assay, Fv. Particulars: ≥90% inhibition, 48 hours vs 2% DMSO control, read-out: Compound Concentration (ppm) sufficient for ≥90% inhibition of growth, Fv. As to the method:
as §1

The subject of another assay is Septoria tritici (St). The experiment in a line: In vitro pathogen growth inhibition assay, St. The following applies: for IC90: Zymoseptoria tritici, 48 h, ≥90% inhibition, 48 hours vs 2% DMSO control, read-out: Compound Concentration (ppm) sufficient for ≥90% inhibition of growth, St; for Compound Concentration (ppm) sufficient for ≥90% inhibition of St: ≥90% growth inhibition, 48 hours, vs 2% DMSO control. The protocol: as §1

In assay [2] the test system is Collectotrichum graminicola (Cg). The assay is described as follows: In vitro pathogen growth inhibition assay, Cg. The following applies: 48 h, ≥90% inhibition; 48 hours vs 2% DMSO control; read-out: Compound Concentration (ppm) sufficient for ≥90% inhibition of growth, Cg. As to the method: as §1
Assay [3] concerns Fusarium moniliforme (Fm). The experiment in a line: In vitro pathogen growth inhibition assay, Fm. Particulars: Fusarium verticillioides; ≥90% inhibition; 48 hours vs 2% DMSO control; read-out: Compound Concentration (ppm) sufficient for ≥90% inhibition of growth, Fm. As to the method: as §1
Assay [4] has as its system Phytophthora capsici (Pc). The experiment in a line: In vitro pathogen growth inhibition assay, Pc. The following applies: 48 h, ≥90% inhibition, 48 hours vs 2% DMSO control, read-out: Compound Concentration (ppm) sufficient for ≥90% inhibition of growth, Pc. The protocol: as §1

Take `COc1ccc(F)cc1[C@H](Cn1c(=O)n(C(C)(C)C(=O)N2CCCC2)c(=O)c2c(C)c(-n3nccn3)sc21)OC(C)C` [Compound I-023]: the IC90 in the assay on Botrtyis cinerea (Bc) was 0.4 µg/mL (≈ 0.668 µM); with Diplodia maydis (Dm) it was 0.08 µg/mL (≈ 0.134 µM); in the assay on Rhizoctonia solani (Rs), 0.08 µg/mL (≈ 0.134 µM); in assay [1], no less than 0.08 µg/mL; with Septoria tritici (St), greater than 10 µg/mL; in assay [2] it was 0.08 µg/mL (≈ 0.134 µM). In addition, the IC90 is 0.08 µg/mL (≈ 0.134 µM) in assay [3] and greater than 50 µg/mL in assay [4].

For the compound `COc1ccc(F)cc1[C@H](Cn1c(=O)n(C(C)(C)C(=O)NC(C)C)c(=O)c2c(C)c(-c3ncco3)sc21)OC1CCC(=O)CC1` [Compound I-024], the IC90 in the assay on Botrtyis cinerea (Bc) is 0.4 µg/mL (≈ 0.624 µM); in the assay with Diplodia maydis (Dm), no less than 2 µg/mL; in the assay with Rhizoctonia solani (Rs), 0.4 µg/mL (≈ 0.624 µM); in assay [1], 2 µg/mL (≈ 3.12 µM); with Septoria tritici (St), greater than 50 µg/mL; in assay [2], 2 µg/mL (≈ 3.12 µM). The IC90 in assay [3] is 0.08 µg/mL (≈ 0.125 µM); in assay [4], greater than 50 µg/mL.

Regarding `CCNC(=O)C(C)(C)n1c(=O)c2c(C)c(-n3nccn3)sc2n(C[C@H](OCC(C)C)c2cc(F)ccc2OC)c1=O` [Compound I-025], the IC90 with Botrtyis cinerea (Bc) is 0.4 µg/mL (≈ 0.682 µM); in the assay on Diplodia maydis (Dm), 0.4 µg/mL (≈ 0.682 µM); in the assay on Rhizoctonia solani (Rs), 0.4 µg/mL (≈ 0.682 µM); in assay [1] it was 0.4 µg/mL (≈ 0.682 µM); with Septoria tritici (St), greater than 10 µg/mL; in assay [2], 0.4 µg/mL (≈ 0.682 µM). Besides, the IC90 in assay [3] was 0.08 µg/mL (≈ 0.136 µM); in assay [4], greater than 50 µg/mL.

Turning to `COc1ccc(F)cc1[C@H](Cn1c(=O)n(C(C)(C)C(=O)NC(C)C)c(=O)c2c(C)c(-n3nccn3)sc21)OCC(C)C` [Compound I-026], the IC90 was 0.4 µg/mL (≈ 0.666 µM) in the assay on Botrtyis cinerea (Bc); 0.08 µg/mL (≈ 0.133 µM) in the assay with Diplodia maydis (Dm); 0.4 µg/mL (≈ 0.666 µM) in the assay on Rhizoctonia solani (Rs); 0.4 µg/mL (≈ 0.666 µM) in assay [1]; no less than 2 µg/mL with Septoria tritici (St); 0.08 µg/mL (≈ 0.133 µM) in assay [2]. In addition, the IC90 in assay [3] is 0.08 µg/mL (≈ 0.133 µM); in assay [4], greater than 50 µg/mL.

`COc1ccc(F)cc1[C@H](Cn1c(=O)n(C(C)(C)C(=O)N2CCCCC2)c(=O)c2c(C)c(-n3nccn3)sc21)OCC(C)C` [Compound I-027]: the IC90 is 0.4 µg/mL (≈ 0.638 µM) in the assay on Botrtyis cinerea (Bc); 0.4 µg/mL (≈ 0.638 µM) in the assay with Diplodia maydis (Dm); 0.4 µg/mL (≈ 0.638 µM) in the assay on Rhizoctonia solani (Rs); 2 µg/mL (≈ 3.19 µM) in assay [1]; greater than 10 µg/mL in the assay with Septoria tritici (St); 0.4 µg/mL (≈ 0.638 µM) in assay [2]. Also, the IC90 was 0.08 µg/mL (≈ 0.128 µM) in assay [3] and greater than 50 µg/mL in assay [4].

In the case of `COc1ccc(F)cc1[C@H](Cn1c(=O)n(C(C)(C)C(=O)N2CCCC2)c(=O)c2c(C)c(-n3nccn3)sc21)OCC(C)C` [Compound I-028], the IC90 is 0.4 µg/mL (≈ 0.653 µM) in the assay with Botrtyis cinerea (Bc); no less than 0.08 µg/mL with Diplodia maydis (Dm); 0.08 µg/mL (≈ 0.131 µM) with Rhizoctonia solani (Rs); 0.4 µg/mL (≈ 0.653 µM) in assay [1]; no less than 2 µg/mL in the assay on Septoria tritici (St); 0.08 µg/mL (≈ 0.131 µM) in assay [2]. The IC90 in assay [3] is 0.08 µg/mL (≈ 0.131 µM); in assay [4], greater than 50 µg/mL.

On to `COc1ccccc1[C@H](Cn1c(=O)n(C(C)(C)C(=O)NC(C)C)c(=O)c2c(C)c(-n3nccn3)sc21)OC1CCOCC1` [Compound I-029], for which the IC90 in the assay on Botrtyis cinerea (Bc) was 0.4 µg/mL (≈ 0.655 µM); in the assay on Diplodia maydis (Dm), no less than 2 µg/mL; in the assay with Rhizoctonia solani (Rs), 0.4 µg/mL (≈ 0.655 µM); in assay [1] it was 0.4 µg/mL (≈ 0.655 µM); with Septoria tritici (St), greater than 10 µg/mL; in assay [2], no less than 2 µg/mL. Further, the IC90 in assay [3] is 0.08 µg/mL (≈ 0.131 µM); in assay [4] it was 50 µg/mL (≈ 81.9 µM).

As for `CCOC(=O)c1sc2c(c1C)c(=O)n(C(C)(C)C(=O)NC(C)C)c(=O)n2C[C@H](OCCC#N)c1cc(F)ccc1OC` [Compound I-300], the “Compound Concentration (ppm) sufficient for ≥90% inhibition of Rs” value in the assay with Rhizoctonia solani (Rs) amounted to 0.08 ppm. Further, the “Compound Concentration (ppm) sufficient for ≥90% inhibition of St” value with Septoria tritici (St) is on record as greater than 50 ppm.

Turning to `CCOC(=O)c1sc2c(c1C)c(=O)n([C@H](C)C(=O)NC(C)C)c(=O)n2C[C@H](OCCC#N)c1cc(F)ccc1OC` [Compound I-330], the “Compound Concentration (ppm) sufficient for ≥90% inhibition of Rs” value in the assay with Rhizoctonia solani (Rs) turned out to be 2 ppm. Also, in the assay with Septoria tritici (St), the “Compound Concentration (ppm) sufficient for ≥90% inhibition of St” value is listed as greater than 50 ppm.
